From patent publication US11071731B2, “Allosteric modulators of the mu opioid receptor” (Chiromics, LLC, priority 2017, dated 2021)
Like-named read-outs stand apart in the source and are kept apart here.

What was measured:
[1] = biological target: T1, mu opioid receptor (MOR) (Homo sapiens, UniProt P35372); test: PathHunter β-arrestin recruitment assay, PAM mode with EC20 endomorphin-1; type: cell-based
In short: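 β-Arrestin recruitment to the receptor was tracked by chemiluminescent β-galactosidase activity from complementing fragments (ED on receptor, EA on β-arrestin). Per-compound outputs were EC50 and percent maximal response.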

[2] = biological target: T1, mu opioid receptor (MOR); test: Hit Hunter cAMP signaling assay (adenylyl cyclase inhibition), PAM mode with EC20 endomorphin-1; type: cell-based
[3] = biological target: T2, MOR (Homo sapiens, UniProt P35372); test: EM1 concentration-response curves for β-arrestin recruitment with or without compound, full functional allosteric model; type: cell-based
[4] = biological target: T2, MOR; type: cell-based
[5] = biological target: T2, MOR; test: cell-based; conditions: EC20 morphine agonism of MOR
[6] = biological target: T2, MOR; test: cell-based; conditions: EC20 morphine agonism of MOR; remark: listed apart in the source
[7] = biological target: T2, MOR; test: cell-based; conditions: EC20 Oxycodone agonism of MOR
[8] = biological target: T2, MOR; test: cell-based; conditions: EC20 Oxycodone agonism of MOR; remark: listed apart in the source
[9] = biological target: T2, MOR; type: cell-based; conditions: β-arrestin; EC20 EM2 agonism of MOR
[10] = Terminal pharmacokinetics: plasma, brain and cerebrospinal fluid concentrations; type: in vivo; conditions: one hour after 15 mg/kg SC or IP, CD-1 mice
Protocol: Given that opioid receptors are highly concentrated in the dorsal root ganglion (DRG) and brain (Martin-Schild et al., supra), terminal pharmacokinetic studies were performed to verify the concentration in the plasma, cerebrospinal fluid and brain.

[11] = Plasma, brain and spinal cord concentrations after subcutaneous dosing; type: in vivo; conditions: subcutaneous 15 mg/kg, ICR rats
Protocol: Concentrations of subcutaneously injected compound 9 in spinal tissue (where the DRG are located) were also assessed.

[12] = test system: CD1 mice; test: Warm water tail-flick assay, compound alone (basal EM1 only); type: in vivo; conditions: 15 mg/kg subcutaneous, 30 minutes after dosing, no exogenous EM1
From the text: An acute pain model was used to determine the analgesic effect of a MOR PAM administered by itself (i.e., in the absence of exogenous opioid). This approach avoids the complexity of matching the pharmacokinetic profile of endomorphin release in response to a pain-inducing insult with a (1) particular MOR PAM (to account for basal endomorphin analgesis) and (2) the measurement window of the study, as would be required for a chronic pain study. Accordingly, an acute pain model, in which the pharmacodynamic measurement was performed directly after the insult, was employed. This was expected to isolate the low basal levels of EM1 analgesis that existed prior to the insult, thereby eliminating the contribution of the time course of release of endogenous opioids in response to the insult. Mousa et al., supra.
The warm water tail-flick assay was chosen as the acute pain model for the reasons described above. […] Przewlocka et al., (1999), supra. First, minimum and sub-efficacious dose of EM1, applied via intrathecal injection to rats, were identified. […] In addition, the time required for maximal response to an intrathecal injection of EM1 to be observed, as well as the time required for a return to basal levels of antinociception, were determined and likewise found to be in agreement with those found in the literature. […]

[13] = test system: Sprague-Dawley rats; test: Respiratory depression: blood oxygen saturation by pulse oximetry; type: in vivo; conditions: subcutaneous; morphine 10 mg/kg, compound 9 15, 30, 60 mg/kg; 90 minutes
Protocol: Respiratory depression is a significant side effect associated with opioid treatment of acute and chronic pain. Drug-related overdose deaths are often a function of the respiratory depression which occurs with opioid use. Efforts to generate analgesics that dissociate pain relief from side effects are critical to the advancement of public health. […] […].
Blood oxygen saturation was assessed in awake rats with the MouseOx oximeter system (Starr Life Sciences, Holliston, Mass.). Up to 5 samples were measured every 5 minutes for 15 minutes prior to dosing and 90 minutes after dosing. Each animal was habituated to the device over several days prior to the study.

[14] = test system: Sprague-Dawley rats; test: Gastrointestinal transit of charcoal bolus and stomach contents; conditions: morphine 10 mg/kg, compound 9 15, 30, 60 mg/kg

T1 sequence (P35372 whole entry, the tested form may be a part): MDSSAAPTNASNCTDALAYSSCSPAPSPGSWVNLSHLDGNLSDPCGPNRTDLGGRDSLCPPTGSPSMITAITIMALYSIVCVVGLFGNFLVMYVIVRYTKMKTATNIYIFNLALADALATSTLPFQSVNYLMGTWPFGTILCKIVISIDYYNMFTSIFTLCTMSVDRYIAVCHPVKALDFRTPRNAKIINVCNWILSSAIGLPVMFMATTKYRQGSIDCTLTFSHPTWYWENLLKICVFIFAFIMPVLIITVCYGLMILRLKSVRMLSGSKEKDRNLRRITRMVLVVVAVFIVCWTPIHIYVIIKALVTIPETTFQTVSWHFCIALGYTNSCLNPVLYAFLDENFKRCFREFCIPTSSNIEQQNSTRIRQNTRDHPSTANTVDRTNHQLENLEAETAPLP
T2 sequence (P35372 whole entry): as the sequence (P35372 whole entry, the tested form may be a part) above

Q: For Fc1cnc(Cl)nc1N1CCCCC1c1cccc(C(F)(F)F)c1 (single isomer, unassigned) [compound 9], which EC50 ([1]; EM1-mediated MOR agonism, read-out: RC50 for β-arrestin recruitment) is on record?
A: 360 nM

Q: What about the “β-arr Max. Resp.” value ([1]; maximal response for β-arrestin recruitment) of the same compound?
A: F (F represents a maximal response of > 60%)

Q: What about the EC50 ([1]; β-arrestin recruitment, read-out: β-arr. EC50) of the same compound?
A: < 700 nM

Q: And the “Max. Response” value ([1]; β-arrestin, EC20 EM-1 agonism of MOR)?
A: 210

Q: And the EC50 ([2]; RC50 for adenylyl cyclase inhibition, EM1-mediated MOR agonism)?
A: 590 nM

Q: What about the EC50 ([2]; cAMP EC50, adenylyl cyclase inhibition) of the same compound?
A: < 700 nM

Q: What about the “Max. Response” value ([2]; cAMP, EC20 EM-1 agonism of MOR) of the same compound?
A: 75

Q: And the “cAMP Max. Resp.” value ([2]; maximal response for adenylyl cyclase inhibition)?
A: F (F represents a maximal response of > 60%)

Q: What about the “effective potency for PAM effect” value [3] of the same compound?
A: 70.8 nM

Q: And the “factor of increase of the affinity (α) of EM1” value [3]?
A: 9

Q: And the “factor of increase of the efficacy (β) of EM1” value [3]?
A: 3

Q: And the “shift in the potency of EM1” value [3]?
A: concentration-dependent and saturable leftward shifts

Q: What about the “αβ product, in vitro” value ([3]; β-arrestin endomorphin responses) of the same compound?
A: 27

Q: What about the “shift in the potency of EM1” value ([4]; cAMP assay) of the same compound?
A: concentration-dependent and saturable leftward shifts

Q: And the “factor of increase of the affinity (α) of EM1” value ([4]; cAMP signaling)?
A: 2

Q: And the “factor of increase of the efficacy (β) of EM1” value ([4]; cAMP signaling)?
A: 1.8

Q: And the “effective potency for PAM effect” value ([4]; cAMP signaling, EM1)?
A: 44 nM

Q: What about the EC50 ([5]; RC50, β-arrestin) of the same compound?
A: 10700 nM

Q: And the “Max. Response” value ([5]; β-arrestin)?
A: 456

Q: And the EC50 ([6]; RC50, cAMP)?
A: 2950 nM

Q: What about the “Max. Response” value ([6]; cAMP) of the same compound?
A: 38

Q: And the EC50 ([7]; RC50, β-arrestin)?
A: 11100 nM

Q: What about the “Max. Response” value ([7]; β-arrestin) of the same compound?
A: 296

Q: What about the EC50 ([8]; RC50, cAMP) of the same compound?
A: 3180 nM

Q: And the “Max. Response” value ([8]; cAMP)?
A: 40

Q: And the “Max. Response” value [9]?
A: 138

Q: And the “persistence in brain and plasma” value [10]?
A: persists in brain and plasma, at therapeutically relevant concentrations

Q: And the “exposure in spinal tissue and brain” value [11]?
A: good exposures in spinal tissue

Q: And the “antinociceptive effect, tail-flick latency” value [12]?
A: No antinociceptive effects were observed

Q: What about the “oxygen saturation / respiratory depression” value [13] of the same compound?
A: did not induce respiratory depression

Q: What about the “stomach weight” value ([14]; 20 minutes after charcoal) of the same compound?
A: unchanged

Q: What about the “GI transit” value ([14]; subcutaneous 1 hour before charcoal) of the same compound?
A: unchanged
